Species: Rattus norvegicus
Test: DrugMatrix - Regimen: Daily Repeat
Format: toxicity, organism-based, Sprague-Dawley
Parameters: regimen Daily Repeat, gender Male, age 6-8 weeks
Conditions: in vivo, po, route oral GAVAGE, […]; for ABSOLUTE BASOPHIL / ABSOLUTE EOSINOPHIL / ABSOLUTE LYMPHOCYTE / ABSOLUTE MONOCYTE / ABSOLUTE SEGMENTED NEUTROPHIL / BASOPHIL / EOSINOPHIL / ERYTHROCYTE COUNT / HEMATOCRIT / HEMOGLOBIN / LEUKOCYTE COUNT / LYMPHOCYTE / MEAN CORPUSCULAR HEMOGLOBIN / MEAN CORPUSCULAR HEMOGLOBIN CONCENTRATION / MEAN CORPUSCULAR VOLUME / MONOCYTE / NEUTROPHIL / NUCLEATED RED BLOOD CELLS / PLATELET COUNT: tissue Blood; for ALANINE AMINOTRANSFERASE / ALBUMIN / ALKALINE PHOSPHATASE / ASPARTATE AMINOTRANSFERASE / BLOOD UREA NITROGEN / CARBON DIOXIDE / CHLORIDE / CHOLESTEROL / CREATINE PHOSPHOKINASE / CREATININE / GLUCOSE / LACTATE DEHYDROGENASE / LIPASE / PHOSPHORUS / POTASSIUM / SODIUM / TOTAL BILIRUBIN / TOTAL PROTEIN / URIC ACID: tissue Plasma
[1] = 100 mg/kg, 120 h, dose level Low, time 5 day
[2] = 1000 mg/kg, 72 h, dose level High, time 3 day
[3] = 1000 mg/kg, 120 h, dose level High, time 5 day

Compound: CCCC[C@@H](CC)COC(=O)c1ccccc1C(=O)OC[C@@H](CC)CCCC [BIS(2-ETHYLHEXYL)PHTHALATE]
- ABSOLUTE BASOPHIL [1]: 0 CELLS/uL
- ABSOLUTE EOSINOPHIL [1]: 0 CELLS/uL
- ABSOLUTE LYMPHOCYTE [1]: 8094 CELLS/uL
- ABSOLUTE MONOCYTE [1]: 0 CELLS/uL
- ABSOLUTE SEGMENTED NEUTROPHIL [1]: 772.67 CELLS/uL
- BASOPHIL [1]: 0%
- EOSINOPHIL [1]: 0%
- ERYTHROCYTE COUNT [1]: 5.86 x10E6/uL
- HEMATOCRIT [1]: 36.1%
- HEMOGLOBIN [1]: 13.63 G/DL
- LEUKOCYTE COUNT [1]: 8.87 x10E3/uL
- LYMPHOCYTE [1]: 92.33%
- MEAN CORPUSCULAR HEMOGLOBIN [1]: 23.33 pg
- MEAN CORPUSCULAR HEMOGLOBIN CONCENTRATION [1]: 37.8 G/DL
- MEAN CORPUSCULAR VOLUME [1]: 61.67 fL
- MONOCYTE [1]: 0%
- NEUTROPHIL [1]: 7.67%
- NUCLEATED RED BLOOD CELLS [1]: 0 /100WBC
- PLATELET COUNT [1]: 682.33 x10E3/uL
- ALANINE AMINOTRANSFERASE [1]: 80 u/L
- ALBUMIN [1]: 4.27 G/DL
- ALKALINE PHOSPHATASE [1]: 577.33 u/L
- ASPARTATE AMINOTRANSFERASE [1]: 98.33 u/L
- BLOOD UREA NITROGEN [1]: 14.67 mg/dL
- CARBON DIOXIDE [1]: 35.67 mmol/L
- CHLORIDE [1]: 99 MEQ/L
- CHOLESTEROL [1]: 41 mg/dL
- CREATINE PHOSPHOKINASE [1]: 172 u/L
- CREATININE [1]: 0.21 mg/dL
- GLUCOSE [1]: 156.33 mg/dL
- LACTATE DEHYDROGENASE [1]: 135.33 u/L
- LIPASE [1]: 22.33 u/L
- PHOSPHORUS [1]: 10.4 mg/dL
- POTASSIUM [1]: 5.25 MEQ/L
- SODIUM [1]: 144.53 MEQ/L
- TOTAL BILIRUBIN [1]: 0.17 mg/dL
- TOTAL PROTEIN [1]: 5.63 G/DL
- URIC ACID [1]: 0.63 mg/dL
- ABSOLUTE BASOPHIL [2]: 0 CELLS/uL
- ABSOLUTE EOSINOPHIL [2]: 0 CELLS/uL
- ABSOLUTE LYMPHOCYTE [2]: 10510 CELLS/uL
- ABSOLUTE MONOCYTE [2]: 28 CELLS/uL
- ABSOLUTE SEGMENTED NEUTROPHIL [2]: 628.67 CELLS/uL
- BASOPHIL [2]: 0%
- EOSINOPHIL [2]: 0%
- ERYTHROCYTE COUNT [2]: 5.07 x10E6/uL
- HEMATOCRIT [2]: 32.33%
- HEMOGLOBIN [2]: 12.8 G/DL
- LEUKOCYTE COUNT [2]: 11.17 x10E3/uL
- LYMPHOCYTE [2]: 93.67%
- MEAN CORPUSCULAR HEMOGLOBIN [2]: 25.3 pg
- MEAN CORPUSCULAR HEMOGLOBIN CONCENTRATION [2]: 39.57 G/DL
- MEAN CORPUSCULAR VOLUME [2]: 63.8 fL
- MONOCYTE [2]: 0.33%
- NEUTROPHIL [2]: 6%
- NUCLEATED RED BLOOD CELLS [2]: 0 /100WBC
- PLATELET COUNT [2]: 532 x10E3/uL
- ALANINE AMINOTRANSFERASE [2]: 82 u/L
- ALBUMIN [2]: 4.03 G/DL
- ALKALINE PHOSPHATASE [2]: 468.67 u/L
- ASPARTATE AMINOTRANSFERASE [2]: 94 u/L
- BLOOD UREA NITROGEN [2]: 14.67 mg/dL
- CARBON DIOXIDE [2]: 26 mmol/L
- CHLORIDE [2]: 96.33 MEQ/L
- CHOLESTEROL [2]: 44.67 mg/dL
- CREATINE PHOSPHOKINASE [2]: 477.67 u/L
- CREATININE [2]: 0.2 mg/dL
- GLUCOSE [2]: 161.67 mg/dL
- LACTATE DEHYDROGENASE [2]: 137 u/L
- LIPASE [2]: 8.67 u/L
- PHOSPHORUS [2]: 10.3 mg/dL
- POTASSIUM [2]: 4.99 MEQ/L
- SODIUM [2]: 137.1 MEQ/L
- TOTAL BILIRUBIN [2]: 0.0667 mg/dL
- TOTAL PROTEIN [2]: 5.33 G/DL
- URIC ACID [2]: 0.77 mg/dL
- ABSOLUTE BASOPHIL [3]: 0 CELLS/uL
- ABSOLUTE EOSINOPHIL [3]: 0 CELLS/uL
- ABSOLUTE LYMPHOCYTE [3]: 8272 CELLS/uL
- ABSOLUTE MONOCYTE [3]: 65 CELLS/uL
- ABSOLUTE SEGMENTED NEUTROPHIL [3]: 663 CELLS/uL
- BASOPHIL [3]: 0%
- EOSINOPHIL [3]: 0%
- ERYTHROCYTE COUNT [3]: 5.57 x10E6/uL
- HEMATOCRIT [3]: 34.07%
- HEMOGLOBIN [3]: 13.37 G/DL
- LEUKOCYTE COUNT [3]: 9 x10E3/uL
- LYMPHOCYTE [3]: 92%
- MEAN CORPUSCULAR HEMOGLOBIN [3]: 24 pg
- MEAN CORPUSCULAR HEMOGLOBIN CONCENTRATION [3]: 39.23 G/DL
- MEAN CORPUSCULAR VOLUME [3]: 61.2 fL
- MONOCYTE [3]: 0.67%
- NEUTROPHIL [3]: 7.33%
- NUCLEATED RED BLOOD CELLS [3]: 0 /100WBC
- PLATELET COUNT [3]: 1014.67 x10E3/uL
- ALANINE AMINOTRANSFERASE [3]: 84.67 u/L
- ALBUMIN [3]: 4.23 G/DL
- ALKALINE PHOSPHATASE [3]: 412.67 u/L
- ASPARTATE AMINOTRANSFERASE [3]: 99 u/L
- BLOOD UREA NITROGEN [3]: 14.33 mg/dL
- CARBON DIOXIDE [3]: 35.33 mmol/L
- CHLORIDE [3]: 100.33 MEQ/L
- CHOLESTEROL [3]: 53 mg/dL
- CREATINE PHOSPHOKINASE [3]: 324.67 u/L
- CREATININE [3]: 0.12 mg/dL
- GLUCOSE [3]: 168.33 mg/dL
- LACTATE DEHYDROGENASE [3]: 165.33 u/L
- LIPASE [3]: 9.33 u/L
- PHOSPHORUS [3]: 10.6 mg/dL
- POTASSIUM [3]: 5.56 MEQ/L
- SODIUM [3]: 144.83 MEQ/L
- TOTAL BILIRUBIN [3]: 0.13 mg/dL
- TOTAL PROTEIN [3]: 5.77 G/DL
- URIC ACID [3]: 0.7 mg/dL

— ChEMBL document CHEMBL3885881, “DrugMatrix”
